The subject of test [1] is TOM20 ubiquitylation in HeLa cells overexpressing PARKIN. The test can be described thus: Cell TOM20 ubiquitination assay (HeLa YFP-Parkin + A/O). It is filed as cell-based, human. The settings on record: for EC50: Homo sapiens, 1.5 h. How it is done:
Hela cells overexpressing YFP-Parkin were treated with 1 µM Antimycin A and 1 µM Oligomycin A (AA/OA) and test compound or DMSO for 90 mins. Following treatment, media was removed, and cells were washed in DPBS and then lysed in NP40 lysis buffer on ice. […] The bands corresponding to all forms of ubiquitylated TOM20 were quantified and normalized to the same bands for AA/OA treated cells.

The target in a further test is T1, SENP1 CD (Homo sapiens, UniProt Q9P0U3).
T1 construct: SENP1 CD
T1 sequence (Q9P0U3 450-613 limits assumed): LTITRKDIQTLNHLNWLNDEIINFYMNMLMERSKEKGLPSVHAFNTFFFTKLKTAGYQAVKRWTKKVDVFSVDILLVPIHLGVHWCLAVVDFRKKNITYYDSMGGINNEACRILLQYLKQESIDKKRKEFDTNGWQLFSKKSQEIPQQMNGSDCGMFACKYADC
Nature of the test: DUB/cathepsin selectivity biochemical assay.

For the next test, the target named is USP19 (Homo sapiens, UniProt O94966). Nature of the test: DUB/cathepsin selectivity biochemical assay.
Sequence of USP19 (O94966 whole entry, species assumed): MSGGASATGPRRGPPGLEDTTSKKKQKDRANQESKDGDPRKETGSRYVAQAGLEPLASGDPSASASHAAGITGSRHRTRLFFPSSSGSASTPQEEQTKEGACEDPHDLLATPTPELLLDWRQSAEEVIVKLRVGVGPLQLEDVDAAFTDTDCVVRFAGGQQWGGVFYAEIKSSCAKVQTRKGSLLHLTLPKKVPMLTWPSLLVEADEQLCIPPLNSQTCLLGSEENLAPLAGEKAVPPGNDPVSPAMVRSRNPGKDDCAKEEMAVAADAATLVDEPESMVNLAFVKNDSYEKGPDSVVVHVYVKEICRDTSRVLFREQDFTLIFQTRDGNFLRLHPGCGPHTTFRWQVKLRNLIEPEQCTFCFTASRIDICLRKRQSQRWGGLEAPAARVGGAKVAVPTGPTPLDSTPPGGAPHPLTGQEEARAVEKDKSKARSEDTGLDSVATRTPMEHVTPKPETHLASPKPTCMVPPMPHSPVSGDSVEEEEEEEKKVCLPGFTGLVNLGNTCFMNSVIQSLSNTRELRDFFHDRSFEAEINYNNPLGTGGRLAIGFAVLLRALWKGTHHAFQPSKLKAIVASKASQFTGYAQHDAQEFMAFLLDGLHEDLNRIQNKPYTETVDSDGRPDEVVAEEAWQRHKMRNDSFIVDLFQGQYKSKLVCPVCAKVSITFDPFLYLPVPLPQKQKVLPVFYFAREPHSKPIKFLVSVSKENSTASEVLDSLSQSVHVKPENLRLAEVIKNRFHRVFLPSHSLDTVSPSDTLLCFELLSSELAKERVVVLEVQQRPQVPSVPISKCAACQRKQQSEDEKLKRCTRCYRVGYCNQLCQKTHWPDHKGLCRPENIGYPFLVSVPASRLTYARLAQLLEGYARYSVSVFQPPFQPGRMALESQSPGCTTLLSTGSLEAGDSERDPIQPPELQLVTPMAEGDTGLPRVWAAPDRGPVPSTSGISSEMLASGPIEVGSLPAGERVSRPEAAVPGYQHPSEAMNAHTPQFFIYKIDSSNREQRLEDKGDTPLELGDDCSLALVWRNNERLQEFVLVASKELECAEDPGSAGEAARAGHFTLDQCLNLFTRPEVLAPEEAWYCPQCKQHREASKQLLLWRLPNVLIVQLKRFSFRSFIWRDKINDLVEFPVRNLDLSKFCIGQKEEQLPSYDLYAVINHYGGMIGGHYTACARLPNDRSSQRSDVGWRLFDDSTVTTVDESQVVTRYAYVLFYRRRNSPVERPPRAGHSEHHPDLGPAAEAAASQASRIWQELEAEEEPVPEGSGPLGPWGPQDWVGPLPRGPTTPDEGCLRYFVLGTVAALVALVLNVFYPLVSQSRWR
A further test concerns the target T2, USP36 CD (Homo sapiens, UniProt Q9P275).
T2 construct: USP36 CD
The test can be described thus: DUB/cathepsin selectivity biochemical assay.

Read-outs that look alike come from different tables or passages of the source.

T2 sequence (Q9P275 122-423 limits assumed): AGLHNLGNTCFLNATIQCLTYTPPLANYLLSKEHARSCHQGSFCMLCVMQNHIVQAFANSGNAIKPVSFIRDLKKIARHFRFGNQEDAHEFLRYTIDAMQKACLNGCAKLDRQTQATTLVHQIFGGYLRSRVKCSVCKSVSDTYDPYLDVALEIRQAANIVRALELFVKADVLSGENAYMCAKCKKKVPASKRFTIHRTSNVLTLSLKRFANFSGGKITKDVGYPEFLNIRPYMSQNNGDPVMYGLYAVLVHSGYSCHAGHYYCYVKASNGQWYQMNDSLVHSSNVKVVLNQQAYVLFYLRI

Take `C[C@@H]1[C@H]2CCN(C(=O)c3ncc(-c4ccnc(C#N)c4)o3)[C@H]2CN1C#N` [MTX115325]: the “TOM20 ubiquitylation signal, MTX115325 + AO (Figure 4b)” value in test [1] (0.0001 µM) came to 1.19; in test [1] (0.0003 µM), 1.5; in test [1] (0.001 µM), 1.43; in test [1] (0.003 µM), 1.6; in test [1] (0.01 µM) it was 2.01; in test [1] (0.03 µM), 2.55. The “TOM20 ubiquitylation signal, MTX115325 + AO (Figure 4b)” value in test [1] (0.1 µM) was found to be 3.08; in test [1] (0.3 µM) it was 3.55; in test [1] (1 µM), 3.5; in test [1] (3 µM), 3.33. Also, in test [1] (HeLa cells, 90 min, representative concentration-response), the “TOM20-Ub 1.5X interpolated value (representative profile, Fig. 4b)” value was 0.0020 µM. Besides, in test [1] (HeLa-PARKIN + A/O, 90 min), the “TOM20-Ub EC1.5x” value came out at 10 nM. In addition, the EC50 (usually the concentration that produces a half-maximal response) in test [1] (HeLa cells, 90 min, representative concentration-response, read-out: TOM20-Ub EC50 (representative profile, Fig. 4b)) was determined as 0.022 µM; in test [1] (HeLa-PARKIN + A/O, 90 min, read-out: TOM20-Ub EC50) it was 0.032 µM. Besides, the IC50 – broadly, the midpoint of a concentration-inhibition curve – against SENP1 CD is more than 300 µM; at USP19 it was 278 µM; on USP36 CD, 157 µM.
